Seven compounds from ChEMBL document CHEMBL1201862, “PubChem BioAssay data set” (2004) can be followed below.

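Cultured in 96-well plates, cells were exposed to test compound for 48 hours across five concentrations. At the GI50, growth is halved.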 Calls of active or inactive are those of the source. Rule as the data show it: active = GI50 up to about 1.1 µM and inactive = higher.

Test systems include HT-29; MDA-N; OVCAR-3; UACC-62; Malme-3M; SR; M14; SF-295; OVCAR-4; U-251; HCT-116; NCI-H522; UACC-257; SF-539; UO-31; MDA-MB-231; EKVX; HCC 2998; T47D; SK-MEL-5.
What all share (assay): DTP human tumour cell line panel, 48 h

For the compound `CC(=O)OCC1OC(O[C@@H]2C[C@H]3C(C)(C)[C@H](OC(C)=O)CC[C@]3(C)[C@H]3CC[C@@]45C[C@H](O)C[C@H](C)[C@@H]4CC=C5[C@@]32C)C(O)C(O)C1O` (stereo not given in full), the GI50 with HT-29 was 1.91 µM (inactive); in the experiment with MDA-N it was 3.61 µM (inactive); with OVCAR-3, 3.75 µM (inactive); in the experiment with UACC-62, 4.12 µM (inactive); in the experiment with Malme-3M, 6.92 µM (inactive); with SR, 2.07 µM (inactive). The GI50 was 4.06 µM (inactive) in the experiment on M14; 3.66 µM (inactive) in the experiment with SF-295; 4.21 µM (inactive) in the experiment on OVCAR-4; 3.04 µM (inactive) in the experiment with U-251; 2.08 µM (inactive) in the experiment with HCT-116; 2.72 µM (inactive) with NCI-H522. Moreover, the GI50 in the experiment on UACC-257 was 4.72 µM (inactive); with SF-539, 6.59 µM (inactive); in the experiment on UO-31, 13.1 µM (inactive); with MDA-MB-231, 2.39 µM (inactive); in the experiment with EKVX, 7.69 µM (inactive); in the experiment with HCC 2998, 2.03 µM (inactive). Further, the GI50 is 3.43 µM (inactive) with T47D and 3.24 µM (inactive) in the experiment with SK-MEL-5.
Turning to `COc1ccc(C(SCC(N)C(=O)O)(c2ccc(OC)cc2)c2ccc(OC)cc2)cc1` (stereo not given), the GI50 in the experiment with HT-29 is 10.6 µM (inactive); with MDA-N it was 3.5 µM (inactive); in the experiment on OVCAR-3 it was 12.2 µM (inactive); with UACC-62, 10.7 µM (inactive); with Malme-3M, 10.8 µM (inactive); with SR it was 6.27 µM (inactive). For the same compound, the GI50 in the experiment on M14 was 10.2 µM (inactive); with SF-295 it was 11.8 µM (inactive); in the experiment with OVCAR-4, 13.8 µM (inactive); in the experiment with U-251, 14.8 µM (inactive); in the experiment on HCT-116, 6.98 µM (inactive); with NCI-H522, 14.1 µM (inactive). The GI50 was 11.9 µM (inactive) with UACC-257; 12.9 µM (inactive) with SF-539; 11.9 µM (inactive) in the experiment on UO-31; 13.2 µM (inactive) in the experiment on MDA-MB-231; 13.7 µM (inactive) in the experiment on EKVX; 12.9 µM (inactive) with HCC 2998. Further, the GI50 with T47D is 12.2 µM (inactive); in the experiment on SK-MEL-5, > 10 µM (inactive).
`CC1(C)[C@@H]2C[C@H]1C(Cc1ccccc1C[C@H]1c3cc(-c4ccccn4)ncc3[C@H]3C[C@@H]1C3(C)C)c1cc(-c3ccccn3)ncc12` (stereo not given in full): the GI50 in the experiment with HT-29 is 0.371 µM (active); with MDA-N, 0.578 µM (active); in the experiment with OVCAR-3, 0.387 µM (active); with UACC-62, 0.292 µM (active); in the experiment with Malme-3M it was 0.678 µM (active); in the experiment on SR it was 0.153 µM (active). The GI50 with M14 was 0.28 µM (active); with SF-295 it was 0.408 µM (active); with OVCAR-4 it was 0.716 µM (active); with U-251, 0.324 µM (active); with HCT-116, 0.342 µM (active); in the experiment on NCI-H522, 0.448 µM (active). Further, the GI50 in the experiment on UACC-257 is 0.507 µM (active); with SF-539, 0.577 µM (active); in the experiment with UO-31, 0.312 µM (active); in the experiment with MDA-MB-231 it was 0.587 µM (active); in the experiment on EKVX it was 0.461 µM (active); in the experiment on HCC 2998 it was 0.982 µM (active). Moreover, the results for the GI50 in the experiment with T47D and with SK-MEL-5 were 0.294 µM (active) and 0.0834 µM (active), respectively.
For the compound `C[n+]1cccc2ccc3cccnc3c21`, the GI50 with HT-29 is 28.2 µM (inactive); in the experiment on MDA-N it was 67.5 µM (inactive); with OVCAR-3 it was 26.3 µM (inactive); in the experiment on UACC-62 it was 55.3 µM (inactive); with Malme-3M, 16.1 µM (inactive); in the experiment with SR, > 100 µM (inactive). Also, the GI50 with M14 was 44.7 µM (inactive); in the experiment on SF-295, 43.6 µM (inactive); with OVCAR-4, 33.8 µM (inactive); in the experiment with U-251 it was 18.5 µM (inactive); in the experiment on HCT-116, 19.4 µM (inactive); in the experiment with NCI-H522, 10 µM (inactive). For the same compound, the GI50 with UACC-257 was 41.9 µM (inactive); in the experiment on SF-539 it was 48 µM (inactive); with UO-31 it was 21.8 µM (inactive); in the experiment on MDA-MB-231 it was 83.6 µM (inactive); in the experiment on EKVX it was 6.84 µM (inactive); in the experiment on HCC 2998, 49.2 µM (inactive). The GI50 in the experiment on T47D was 21 µM (inactive); in the experiment with SK-MEL-5, 16.2 µM (inactive).
In the case of `N#C/C=c1/c2ccccc2n2nc3ccccc3c12`, the GI50 with HT-29 was 25.6 µM (inactive); in the experiment on MDA-N it was > 100 µM (inactive); with OVCAR-3 it was 34.5 µM (inactive); in the experiment with UACC-62, 14.9 µM (inactive); in the experiment with Malme-3M, 46.6 µM (inactive); in the experiment on SR it was 5.79 µM (inactive). Moreover, the GI50 in the experiment with M14 is 51.9 µM (inactive); in the experiment on SF-295, 21.7 µM (inactive); with OVCAR-4, 11.6 µM (inactive); in the experiment on U-251, 12 µM (inactive); in the experiment on HCT-116 it was 3.09 µM (inactive); in the experiment on NCI-H522, 12.5 µM (inactive). Moreover, the GI50 in the experiment on UACC-257 is > 100 µM (inactive); in the experiment with SF-539, 8.69 µM (inactive); in the experiment on UO-31, 10.8 µM (inactive); in the experiment with MDA-MB-231, 3.61 µM (inactive); in the experiment with EKVX it was 24.5 µM (inactive); with HCC 2998, 26.5 µM (inactive). The results for the GI50 with T47D and with SK-MEL-5 were > 100 µM (inactive) and 26.7 µM (inactive), respectively.
On to `Clc1ccc(C(Cc2cccc(Cl)c2)c2c(Cl)nc(N3CCNCC3)nc2Cl)cc1` (stereo not given), for which the GI50 with HT-29 was > 100 µM (inactive); in the experiment on MDA-N, 16.1 µM (inactive); with OVCAR-3, 15.8 µM (inactive); in the experiment with UACC-62, 19.5 µM (inactive); with Malme-3M it was 13.6 µM (inactive); in the experiment with SR, 5.38 µM (inactive). The GI50 in the experiment with M14 was 13.4 µM (inactive); in the experiment with SF-295, 16.8 µM (inactive); in the experiment with OVCAR-4, 16.5 µM (inactive); in the experiment on U-251, 16.4 µM (inactive); with HCT-116, 13.2 µM (inactive); with NCI-H522 it was 14.8 µM (inactive). The GI50 in the experiment on UACC-257 is 18.8 µM (inactive); in the experiment with SF-539 it was 19.5 µM (inactive); in the experiment with UO-31, 12.9 µM (inactive); in the experiment on MDA-MB-231, 13.5 µM (inactive); in the experiment on EKVX it was 0.128 µM (active); in the experiment with HCC 2998 it was 15.1 µM (inactive). Moreover, the GI50 is 16.4 µM (inactive) in the experiment on T47D and 16.1 µM (inactive) in the experiment with SK-MEL-5.
On to `CC1=NN(C(=O)CC(=O)Nc2cccc(C)c2)C(=O)C1/N=N\c1ccc(S(=O)(=O)c2ccc(/N=N/C3C(=O)N(C(=O)CC(=O)Nc4cccc(C)c4)N=C3C)cc2)cc1` (stereo not given), for which the GI50 is > 100 µM (inactive) with HT-29; > 100 µM (inactive) with MDA-N; > 100 µM (inactive) in the experiment with OVCAR-3; > 100 µM (inactive) with UACC-62; 85.5 µM (inactive) in the experiment with Malme-3M; > 100 µM (inactive) with SR. Moreover, the GI50 in the experiment with M14, with SF-295, with OVCAR-4, with U-251, with HCT-116 and with NCI-H522 was > 100 µM (inactive) throughout. For the same compound, the GI50 in the experiment on UACC-257, in the experiment with SF-539, in the experiment on UO-31, in the experiment with MDA-MB-231, in the experiment on EKVX and in the experiment on HCC 2998 was > 100 µM (inactive) throughout. Further, the GI50 in the experiment with T47D and in the experiment on SK-MEL-5 was > 100 µM (inactive) throughout.
